Test results reported in PubChem BioAssay AID2060497 (Molecular Pharmacology Branch, DTP, NCI, 2025).

System: 317291-083-R-J1-PDC complex spheroids, viability
Experiment: Anticancer human tumor 317291-083-R-J1-PDC patient-derived soft tissue sarcoma cell line growth inhibition [GQUAD]
Settings: for IC50: curve of first compound; for viability, T/C: stronger effect = lower value
How it was run: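 Multi-cell-type spheroids of tumor cells with HUVEC and mesenchymal stem cells, treated with drug combinations. Concentrations descend in half-log steps from near clinical Cmax, or from 10 microM where Cmax is unknown; viability read-out.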

[1] = second compound 0.0316 µM, first compound 0.0316 µM
[2] = second compound 0.0316 µM, first compound 0.316 µM
[3] = second compound 0.1 µM, first compound 0.0316 µM
[4] = second compound 0.1 µM, first compound 0.316 µM
[5] = second compound 0.316 µM, first compound 0.0316 µM
[6] = second compound 0.316 µM, first compound 0.316 µM
[7] = second compound 1 µM, first compound 0.0316 µM
[8] = second compound 1 µM, first compound 0.316 µM
[9] = second compound 3.16 µM, first compound 0.0316 µM
[10] = second compound 3.16 µM, first compound 0.316 µM
[11] = second compound 10 µM, first compound 0.0316 µM
[12] = second compound 10 µM, first compound 0.316 µM
[13] = second compound 0.0316 µM, first compound 0.1 µM
[14] = second compound 0.0316 µM, first compound 1 µM
[15] = second compound 0.0316 µM, first compound 3.16 µM
[16] = second compound 0.0316 µM, first compound 10 µM
[17] = second compound 0.1 µM, first compound 0.1 µM
[18] = second compound 0.1 µM, first compound 1 µM
[19] = second compound 0.1 µM, first compound 3.16 µM
[20] = second compound 0.1 µM, first compound 10 µM
[21] = second compound 0.316 µM, first compound 0.1 µM
[22] = second compound 0.316 µM, first compound 1 µM
[23] = second compound 0.316 µM, first compound 3.16 µM
[24] = second compound 0.316 µM, first compound 10 µM
[25] = second compound 1 µM, first compound 0.1 µM
[26] = second compound 1 µM, first compound 1 µM
[27] = second compound 1 µM, first compound 3.16 µM
[28] = second compound 1 µM, first compound 10 µM
[29] = second compound 3.16 µM, first compound 0.1 µM
[30] = second compound 3.16 µM, first compound 1 µM
[31] = second compound 3.16 µM, first compound 3.16 µM
[32] = second compound 3.16 µM, first compound 10 µM
[33] = second compound 10 µM, first compound 0.1 µM
[34] = second compound 10 µM, first compound 1 µM
[35] = second compound 10 µM, first compound 3.16 µM
[36] = second compound 10 µM, first compound 10 µM
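Also: spheroids exposed to compounds for one week before readout.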
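For viability, T/C in this document: percent viability relative to DMSO vehicle wells taken as 100%.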

Cn1ncnc1[C@H]1c2n[nH]c(=O)c3cc(F)cc(c23)N[C@@H]1c1ccc(F)cc1 + CN(C)c1ccc(Nc2c3ccc(NC(=O)CCN4CCCC4)cc3nc3cc(NC(=O)CCN4CCCC4)ccc23)cc1
IC50 (second compound 0.0316 µM): > 316 nM
IC50 (second compound 0.1 µM): > 316 nM
IC50 (second compound 0.316 µM): 205 nM
IC50 (second compound 1 µM): 14.9 nM
IC50 (second compound 3.16 µM): < 0.999 nM
IC50 (second compound 10 µM): < 0.999 nM
viability, T/C (second compound 0.0316 µM, first compound 0.000999 µM): 112%
viability, T/C (second compound 0.0316 µM, first compound 0.00316 µM): 94%
viability, T/C (second compound 0.0316 µM, first compound 0.00999 µM): 85%
viability, T/C [1]: 74.7%
viability, T/C (second compound 0.0316 µM, first compound 0.0999 µM): 67.4%
viability, T/C [2]: 66.6%
viability, T/C (second compound 0.1 µM, first compound 0.000999 µM): 115%
viability, T/C (second compound 0.1 µM, first compound 0.00316 µM): 87.6%
viability, T/C (second compound 0.1 µM, first compound 0.00999 µM): 90.3%
viability, T/C [3]: 87.6%
viability, T/C (second compound 0.1 µM, first compound 0.0999 µM): 81.9%
viability, T/C [4]: 65.3%
viability, T/C (second compound 0.316 µM, first compound 0.000999 µM): 68.9%
viability, T/C (second compound 0.316 µM, first compound 0.00316 µM): 79.3%
viability, T/C (second compound 0.316 µM, first compound 0.00999 µM): 72.8%
viability, T/C [5]: 61.9%
viability, T/C (second compound 0.316 µM, first compound 0.0999 µM): 60.5%
viability, T/C [6]: 44.6%
viability, T/C (second compound 1 µM, first compound 0.000999 µM): 54.3%
viability, T/C (second compound 1 µM, first compound 0.00316 µM): 49.3%
viability, T/C (second compound 1 µM, first compound 0.00999 µM): 62.1%
viability, T/C [7]: 34.1%
viability, T/C (second compound 1 µM, first compound 0.0999 µM): 38.2%
viability, T/C [8]: 47.9%
viability, T/C (second compound 3.16 µM, first compound 0.000999 µM): 35.7%
viability, T/C (second compound 3.16 µM, first compound 0.00316 µM): 24%
viability, T/C (second compound 3.16 µM, first compound 0.00999 µM): 24.9%
viability, T/C [9]: 18.5%
viability, T/C (second compound 3.16 µM, first compound 0.0999 µM): 28.6%
viability, T/C [10]: 17.7%
viability, T/C (second compound 10 µM, first compound 0.000999 µM): 9.05%
viability, T/C (second compound 10 µM, first compound 0.00316 µM): 13.8%
viability, T/C (second compound 10 µM, first compound 0.00999 µM): 8.55%
viability, T/C [11]: 12.2%
viability, T/C (second compound 10 µM, first compound 0.0999 µM): 5.71%
viability, T/C [12]: 8.04%

C=CCn1c(=O)c2cnc(Nc3ccc(N4CCN(C)CC4)cc3)nc2n1-c1cccc(C(C)(C)O)n1 + CN(C)c1ccc(Nc2c3ccc(NC(=O)CCN4CCCC4)cc3nc3cc(NC(=O)CCN4CCCC4)ccc23)cc1
IC50 (second compound 0.0316 µM): 147 nM
IC50 (second compound 0.1 µM): 110 nM
IC50 (second compound 0.316 µM): 34.6 nM
IC50 (second compound 1 µM): < 31.6 nM
IC50 (second compound 3.16 µM): < 31.6 nM
IC50 (second compound 10 µM): < 31.6 nM
viability, T/C [1]: 87.1%
viability, T/C [13]: 64.3%
viability, T/C [2]: 21.7%
viability, T/C [14]: 14.2%
viability, T/C [15]: 8.78%
viability, T/C [16]: 8.84%
viability, T/C [3]: 82.5%
viability, T/C [17]: 52%
viability, T/C [4]: 25.7%
viability, T/C [18]: 12.4%
viability, T/C [19]: 9.4%
viability, T/C [20]: 8.71%
viability, T/C [5]: 51.3%
viability, T/C [21]: 34.4%
viability, T/C [6]: 14.4%
viability, T/C [22]: 7.47%
viability, T/C [23]: 7.01%
viability, T/C [24]: 5.2%
viability, T/C [7]: 31.1%
viability, T/C [25]: 14.4%
viability, T/C [8]: 8.51%
viability, T/C [26]: 2.77%
viability, T/C [27]: 1.74%
viability, T/C [28]: 1.3%
viability, T/C [9]: 2.02%
viability, T/C [29]: 1.03%
viability, T/C [10]: 0.41%
viability, T/C [30]: 3.62%
viability, T/C [31]: 0.31%
viability, T/C [32]: 0.14%
viability, T/C [11]: 0.27%
viability, T/C [33]: 0.13%
viability, T/C [12]: 0.18%
viability, T/C [34]: 0.15%
viability, T/C [35]: 0.21%
viability, T/C [36]: 0.15%

C#Cc1c(F)ccc2cc(O)cc(-c3ncc4c(N5CC6CCC(C5)N6)nc(OCC56CCCN5CC(F)C6)nc4c3F)c12 (stereo not drawn) + Cc1[nH]c2ccc(F)cc2c1-c1nc2c3cccnc3c3ncccc3c2[nH]1
IC50 (second compound 0.0316 µM): 6330 nM
IC50 (second compound 0.1 µM): 5600 nM
IC50 (second compound 0.316 µM): 4530 nM
IC50 (second compound 1 µM): 3280 nM
IC50 (second compound 3.16 µM): < 31.6 nM
IC50 (second compound 10 µM): 1360 nM
viability, T/C [1]: 109%
viability, T/C [13]: 92.8%
viability, T/C [2]: 97.8%
viability, T/C [14]: 99%
viability, T/C [15]: 82.2%
viability, T/C [16]: 28.6%
viability, T/C [3]: 90.9%
viability, T/C [17]: 106%
viability, T/C [4]: 94.9%
viability, T/C [18]: 108%
viability, T/C [19]: 75.6%
viability, T/C [20]: 23.9%
viability, T/C [5]: 80.3%
viability, T/C [21]: 58.9%
viability, T/C [6]: 79.3%
viability, T/C [22]: 59.2%
viability, T/C [23]: 72.5%
viability, T/C [24]: 6%
viability, T/C [7]: 66.5%
viability, T/C [25]: 52.8%
viability, T/C [8]: 64.2%
viability, T/C [26]: 54.2%
viability, T/C [27]: 52.5%
viability, T/C [28]: 3%
viability, T/C [9]: 46.6%
viability, T/C [29]: 36.7%
viability, T/C [10]: 35.3%
viability, T/C [30]: 33.7%
viability, T/C [31]: 35.2%
viability, T/C [32]: 0.12%
viability, T/C [11]: 47.8%
viability, T/C [33]: 60.2%
viability, T/C [12]: 55.2%
viability, T/C [34]: 52.9%
viability, T/C [35]: 42%
viability, T/C [36]: 0.16%

Cc1cccc(N(C)C(=O)C2C(O)CCN2c2nc(C)cc(C(F)(F)F)c2C#N)c1 (stereo not drawn) + Cc1[nH]c2ccc(F)cc2c1-c1nc2c3cccnc3c3ncccc3c2[nH]1
IC50 (second compound 0.0316 µM): > 10000 nM
IC50 (second compound 0.1 µM): > 10000 nM
IC50 (second compound 0.316 µM): > 10000 nM
IC50 (second compound 1 µM): > 10000 nM
IC50 (second compound 3.16 µM): > 10000 nM
IC50 (second compound 10 µM): > 10000 nM
viability, T/C [1]: 112%
viability, T/C [13]: 113%
viability, T/C [2]: 105%
viability, T/C [14]: 120%
viability, T/C [15]: 100%
viability, T/C [16]: 91.9%
viability, T/C [3]: 117%
viability, T/C [17]: 95.1%
viability, T/C [4]: 118%
viability, T/C [18]: 104%
viability, T/C [19]: 121%
viability, T/C [20]: 87.7%
viability, T/C [5]: 102%
viability, T/C [21]: 111%
viability, T/C [6]: 102%
viability, T/C [22]: 113%
viability, T/C [23]: 121%
viability, T/C [24]: 93.4%
viability, T/C [7]: 126%
viability, T/C [25]: 112%
viability, T/C [8]: 121%
viability, T/C [26]: 111%
viability, T/C [27]: 102%
viability, T/C [28]: 86.7%
viability, T/C [9]: 111%
viability, T/C [29]: 113%
viability, T/C [10]: 107%
viability, T/C [30]: 110%
viability, T/C [31]: 111%
viability, T/C [32]: 69%
viability, T/C [11]: 95.1%
viability, T/C [33]: 89.6%
viability, T/C [12]: 101%
viability, T/C [34]: 104%
viability, T/C [35]: 92.5%
viability, T/C [36]: 108%
